Results published in patent publication US9353082B2, “Pharmaceutical compounds” (BIAL—PORTELA & CA, S.A., priority 2008, dated 2016).

Tests used:
carboxylesterase (CE) = experiment: Carboxylesterase (CE) activity in mouse liver microsomes (LVms), p-nitrophenyl acetate; type: biochemical; details: 10 uM compound, read 10 min after substrate, remaining CE activity
Procedure: FAAH inhibition was determined as described above. Inhibition of monoacylglycerol lipase (MAGL) and carboxylesterase (CE) was performed according to the protocols described below. The controls for both in vitro and in vivo were the reaction mix minus the test compounds. Therefore, a low value in Table 2 below for the test compounds indicates a strong inhibitor.
CE activity measurement is based on the formation of p-nitrophenol from p-nitrophenyl acetate. Briefly, in 96-well plates 8 μg/ml of rat or mouse liver microsomes (LVms) were incubated with 10 μM FAAH inhibitors for 15 min and then the substrate, p-nitrophenyl acetate, was added to a final concentration of 1 mM. The plate was read at 405 nm 10 min after substrate addition for the appearance of p-nitrophenol using a spectrophotometer. The carboxylesterase activity in microsome extracts without inhibitor added were set at 100% as control and the remaining CE activities after incubation with inhibitors were calculated relative to the control.

FAAH = target: T1, FAAH (Mus musculus, UniProt O08914); experiment: In vivo FAAH inhibition after oral dosing, remaining activity in liver homogenate (LVh, peripheral tissue); design: species or system NMRI mice; details: 8 h
T1 construct: A fragment of liver, left lung lobe and brain without cerebellum were removed; from tissue; host or cells: male NMRI mice; brain (without cerebellum) and liver homogenates
T1 sequence (O08914 1-579): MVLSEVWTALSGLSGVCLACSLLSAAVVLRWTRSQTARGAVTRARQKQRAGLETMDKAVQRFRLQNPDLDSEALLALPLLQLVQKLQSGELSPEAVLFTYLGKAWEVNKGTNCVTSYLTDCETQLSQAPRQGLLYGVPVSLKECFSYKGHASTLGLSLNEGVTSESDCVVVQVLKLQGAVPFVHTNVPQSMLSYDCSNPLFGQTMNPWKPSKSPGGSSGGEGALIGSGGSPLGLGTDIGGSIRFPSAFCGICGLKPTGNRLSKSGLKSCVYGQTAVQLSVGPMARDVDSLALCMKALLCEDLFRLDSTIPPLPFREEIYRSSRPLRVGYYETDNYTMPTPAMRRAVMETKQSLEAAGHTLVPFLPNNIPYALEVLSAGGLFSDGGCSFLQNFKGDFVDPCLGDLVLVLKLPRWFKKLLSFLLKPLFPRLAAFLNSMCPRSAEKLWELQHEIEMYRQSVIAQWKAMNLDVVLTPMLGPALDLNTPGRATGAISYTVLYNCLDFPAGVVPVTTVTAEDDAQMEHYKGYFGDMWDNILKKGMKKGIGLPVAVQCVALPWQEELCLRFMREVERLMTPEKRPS
Procedure, shortened: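 Remaining FAAH activity is given as % of vehicle-treated controls after blank subtraction, measured by radiolabelled AEA hydrolysis (2 μM AEA, 5 nM 3H-AEA, 37 °C) in brain (10 min) or liver (7 min) homogenates. These came from fasted male NMRI mice dosed orally at 30 or 3 mg/kg.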

CE Mou LVms 10 uM 10 min (carboxylesterase (CE)): 84.3 % of control
FAAH LVh 3 mg · kg · 8 h (FAAH; in vivo, mouse liver, 3 mg/kg oral, remaining enzymatic activity): 101.1 % of control
In Vivo LVh 3 mg/kg 8 h, remaining FAAH activity (FAAH; liver homogenate, 3 mg/kg): 101.1 % of control
SMILES: COc1cccc(-c2cn(C(=O)N3CCCc4ccccc43)cn2)c1 [Compound 39, (3,4-dihydroquinolin-1(2H)-yl)(4-(3-methoxyphenyl)-1H-imidazol-1-yl)methanone]
